This is an account of results in the METLIN SMRT retention time set (Domingo-Almenara et al. 2019).

A short description of the data set: gradient 5% acetonitrile 3 min, to 50% in 2 min, to 85% in 15 min, held 3 min, 100 µL/min. To be noted: column: Zorbax Extend-C18 2.1 x 50 mm; eluents: water / acetonitrile, 0.1% formic acid. The procedure, abridged: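 In both positive and negative ionization mode, a quadrupole time-of-flight mass spectrometer coupled to HPLC analyzed pure standards run in mixtures of ~100 molecules. The Zorbax Extend-C18 column (2.1 × 50 mm, 1.8 μm) was operated at 100 μL/min with water and acetonitrile, each containing 0.1% formic acid. The dead volume was 40 μL and the dwell volume 900 μL. Retention time came from adduct peaks that were computationally picked and individually inspected by hand.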
The compound `COc1ccc(O)c(CNC2CCN(c3ccc(C(=O)NC4CC4)cn3)C2)c1` (stereo not drawn) yielded an RP-LC retention time of 546 s.

With `CC(C)(C)NC(=O)N1CCN(c2cc(-c3cccc(F)c3)ncn2)CC1`, the RP-LC retention time was 669 s.

The compound `Cc1nnc(NC(=O)Cc2csc(SCC(=O)c3ccc(F)cc3)n2)s1` registered an RP-LC retention time of 724 s.

In turn, `O=C(CC1CCCC1)Nc1ccc(N2CCN(C3CCCC3)C2=O)nc1` came in with an RP-LC retention time of 801 s.

As for `CS(=O)(=O)c1ccc2nc(NC(=O)c3ccc([N+](=O)[O-])o3)sc2c1`, the RP-LC retention time was 679 s.

For `CCS(=O)(=O)N(C1CC1)C1CCOC2(CCN(C(=O)c3sc(C)nc3C)CC2)C1` (stereo not drawn), the RP-LC retention time was found to be 714 s.

Consider `COc1ccccc1CCC(=O)N1C[C@@H]2C[C@H](NC(=O)c3ccccc3)[C@H]1C2`, for which the RP-LC retention time came to 816 s.

Consider `CCC(=O)N1CCc2cc(N3CC(C(=O)NCc4ccc(F)cc4)CC3=O)ccc21` (stereo not drawn), for which the RP-LC retention time is 725 s.

For the compound `Fc1cccc(Cl)c1CN1CC(c2nc(C3CC3)no2)C1`, the RP-LC retention time came to 564 s.

`CC1(C(=O)NCc2ccc(F)cc2)Cn2cnc(C(=O)Nc3cc(F)ccc3F)c2C(=O)N1C1CC1` (stereo not drawn) yielded an RP-LC retention time of 847 s.

The compound `CCc1ccc(-c2cc(C(F)(F)F)on2)cc1S(=O)(=O)N1CCCCC1CC` (stereo not drawn) showed an RP-LC retention time of 749 s.

Turning to `Cc1ccccc1Nc1c(-c2cccc(Cl)c2)nc2cccc(C)n12`, the RP-LC retention time came to 802 s.

The compound `Cc1cc(NC(=O)C(C)n2nc(-c3ccc(F)cc3)ccc2=O)on1` (stereo not drawn) registered an RP-LC retention time of 735 s.

`COC(=O)c1ccc(NC(=O)N(C)CCc2noc(C3CCCCC3)n2)cc1`: the RP-LC retention time stood at 906 s.

For the compound `COc1ccc(CNC(=O)Cc2nnc(-c3ccc4ncccc4c3)o2)c(OC)c1`, the RP-LC retention time amounted to 841 s.

For the compound `CC(C)OCCCNC(=O)C1CCN(S(=O)(=O)c2ccc3c(c2)CCCC(=O)N3)CC1`, the RP-LC retention time stood at 674 s.

The compound `CS(=O)(=O)N1CCCc2ccc(NS(=O)(=O)c3ccccc3Cl)cc21` registered an RP-LC retention time of 806 s.

`Cc1ccc(S(=O)(=O)N2CCCC2C(=O)Nc2nnc(-c3ccc(C)c(C)c3)o2)cc1` (stereo not drawn): the RP-LC retention time came to 872 s.

Take `COc1ccc(CNC(=O)NC2CCN(c3ccc(C)c(C)c3)C2=O)cc1` (stereo not drawn): the RP-LC retention time worked out at 793 s.

In the case of `Cn1nc(-c2cccc(NC(=O)C3c4ccccc4Oc4ccccc43)c2)ccc1=O`, the RP-LC retention time amounted to 814 s.

For `Cc1nnc(NC(=O)c2ccccc2OCc2nc(-c3ccccc3)no2)s1`, the RP-LC retention time turned out to be 953 s.

For the compound `CC(C)(C)c1ccc(NC(=O)CSc2ncn[nH]2)cc1`, the RP-LC retention time amounted to 719 s.

As for `COc1ccc(NC(=O)CC2=C3CCCCC3NC2=O)cn1` (stereo not drawn), the RP-LC retention time was found to be 640 s.

`CS(=O)(=O)N1CCC(OC2CCN(C(=O)Nc3cccc(C(F)(F)F)c3)CC2)CC1`: the RP-LC retention time came out at 846 s.

`Cc1cc(Cl)ccc1NC1=NS(=O)(=O)c2ccccc21` had an RP-LC retention time of 834 s.

`CCOc1ccc(C2c3[nH]c4ccccc4c3CCN2C(=O)c2ccnn2C)cc1` (stereo not drawn) returned an RP-LC retention time of 678 s.

For the compound `O=C(C1CC1)N1CCc2sc(S(=O)(=O)Nc3ccc(F)cc3)cc2C1`, the RP-LC retention time is 799 s.

`CCC(C(=O)NCc1cccnc1)n1c2ccccc2c2cnn(C)c(=O)c21` (stereo not drawn) came in with an RP-LC retention time of 615 s.

`CCn1cc(-c2nc(C)c(C(=O)NCc3ccccc3C)s2)c2cccnc21` came in with an RP-LC retention time of 995 s.

Consider `CCn1cc(S(=O)(=O)N2C[C@@H](COC)[C@H](c3ccncc3)C2)cn1`, for which the RP-LC retention time is 625 s.

In turn, `O=C(Cn1c(=O)cc(-c2nc(C3CC3)no2)c2ccccc21)NCc1ccc(Cl)cc1` had an RP-LC retention time of 979 s.

The compound `Cc1ccc(C(=O)NC(C)C(=O)Nc2nc3ccccc3[nH]2)cc1` (stereo not drawn) showed an RP-LC retention time of 648 s.

`CC(=O)Nc1ccc(C)cc1S(=O)(=O)N1CCc2c(c(-c3nnc(-c4ccccc4)o3)nn2C)C1` had an RP-LC retention time of 815 s.

As for `O=S(=O)(Nc1ccc(-c2noc(COc3ccc(Cl)cc3)n2)cc1)c1cccs1`, the RP-LC retention time is 1120 s.

Consider `O=C(NCc1ccco1)c1ccc2c(c1)nnn2Cc1ccc(F)cc1`, for which the RP-LC retention time amounted to 808 s.

`Cc1cccc(-c2nnc(-c3cc(S(=O)(=O)N(C)C)ccc3Cl)o2)c1` showed an RP-LC retention time of 1050 s.

Regarding `CCOc1ccc2nc(NC(=O)c3ccc(N4CCCC4)nn3)sc2c1`, the RP-LC retention time worked out at 830 s.

The compound `Cc1nc(C)c(C(=O)NCC23CCCC=C2N(C)C(=O)CC3)s1` (stereo not drawn) returned an RP-LC retention time of 682 s.

For the compound `COC(=O)c1cccc(NC(=O)N2CCC3(CC2)NC(=O)c2ccccc2O3)c1`, the RP-LC retention time was found to be 736 s.

The compound `COc1cc(NC(=O)c2cn3c(n2)CCCC3)cc(OC)c1` showed an RP-LC retention time of 614 s.

`O=C(NCc1ccco1)Nc1ccccc1Cl` had an RP-LC retention time of 766 s.

In the case of `CCSc1nnc(NC(=O)CSc2ncnc3ccccc23)s1`, the RP-LC retention time is 733 s.

`COc1ccc(Cl)cc1NC(=O)Nc1ccc2c(c1)CN(C(=O)C1CC1)CC2` gave an RP-LC retention time of 871 s.

Compound `CCn1cc(S(=O)(=O)Nc2cccc(C#N)c2)c2cccnc21` registered an RP-LC retention time of 781 s.

For the compound `CCOC(=O)c1sc(NC(=O)c2cc(C)n(C)n2)nc1-c1ccccc1`, the RP-LC retention time is 928 s.

In turn, `CCCNC(=O)c1cc2sc(CC)cc2n1C` gave an RP-LC retention time of 951 s.

Compound `COc1ccc(OC)c(Nc2c(-c3nc(C)no3)cnc3nc(C)ccc23)c1` displayed an RP-LC retention time of 610 s.

`COc1ccc2[nH]cc(CCN3CC(C(=O)Nc4nnc(C(C)(C)C)s4)CC3=O)c2c1` (stereo not drawn) registered an RP-LC retention time of 744 s.

`OCCNc1nc(NCCc2cccs2)nc2c1cnn2-c1ccc(F)cc1` showed an RP-LC retention time of 698 s.

`Cc1cc(C)c2nc(C)cc(C(=O)NC(C)C)c2c1` gave an RP-LC retention time of 650 s.

In the case of `Cc1ccc(-c2nc(N)n(C(=O)c3ccc(C(C)(C)C)cc3)n2)cc1`, the RP-LC retention time came to 1280 s.

`COc1ccc(NS(=O)(=O)c2ccc3c(c2)C(=O)N(C)c2ncccc2O3)cc1F`: the RP-LC retention time amounted to 891 s.

As to `O=C(Nc1cccc(Cl)c1F)c1cnc(-c2ccc(F)cc2)nc1-c1ccncc1`, the RP-LC retention time came to 972 s.

The compound `Cc1ccc(Cn2c(=O)n(CCNC(=O)CC(C)C)c3ncccc32)cc1` yielded an RP-LC retention time of 806 s.

In the case of `COc1ccc(-c2nnc3n2N=C(c2ccc([N+](=O)[O-])cc2)CS3)cc1OC`, the RP-LC retention time is 723 s.

Compound `O=S(=O)(c1ccc(-c2nnc(C3CCC3)o2)o1)N1CCN(C2CCCCC2)CC1` displayed an RP-LC retention time of 690 s.

With `Cc1csc(-c2cc(S(=O)(=O)NCCCN3CCc4ccccc4C3)c(C)s2)n1`, the RP-LC retention time stood at 708 s.

For the compound `O=C(NCCn1nnc2cc(C(=O)N3CCCC3)ccc21)Nc1ccc(Br)cc1`, the RP-LC retention time was 704 s.

The compound `O=C1NCCCn2cc(S(=O)(=O)Nc3ccc(OC(F)(F)F)cc3)cc21` gave an RP-LC retention time of 739 s.

As to `C=CCSc1nc2ccccc2c2nc(C)nn12`, the RP-LC retention time was found to be 982 s.

On to `CN(C)c1ccc(CNC(=O)c2cc3n(n2)CC(C)(C(=O)NC2CCCCCC2)N(C)C3=O)cc1` (stereo not drawn), for which the RP-LC retention time was 649 s.

For the compound `COc1cc(=O)n2c(c1C(=O)Nc1ccc(Br)cc1F)CCCC2`, the RP-LC retention time was found to be 777 s.

For `O=C(c1ccccc1F)N1CCN(c2nc(-c3ccc(Cl)cc3)no2)CC1`, the RP-LC retention time was 1040 s.

Compound `Nc1nc(NCc2ccccc2Cl)ncc1[N+](=O)[O-]` returned an RP-LC retention time of 778 s.

On to `COC(=O)CNC(=O)Nc1ncc(-c2ccccc2)n1C`, for which the RP-LC retention time amounted to 596 s.

As to `O=S(=O)(c1ccc2c(c1)CCCC2)N1CCCC1c1nc(-c2cccc(Cl)c2)no1` (stereo not drawn), the RP-LC retention time was 1410 s.

For `C[C@@H]1O[C@@H](O[C@H]2[C@H](Oc3cc(O)c(C(=O)CCc4ccc(O)cc4)c(O)c3)O[C@H](CO)[C@@H](O)[C@@H]2O)[C@H](O)[C@H](O)[C@H]1O`, the RP-LC retention time was found to be 650 s.

`COc1cccc(NC(=O)C2CCCN(c3ncnc4oc(C)c(C)c34)C2)c1` (stereo not drawn) yielded an RP-LC retention time of 891 s.

Regarding `Cc1cc(C)c(S(=O)(=O)N2CCCC2c2nc(-c3ccccc3C)no2)c(C)c1` (stereo not drawn), the RP-LC retention time is 1330 s.

`CCCCCc1ccc(/C=C/C(=O)Nc2ccccc2C(=O)O)cc1` displayed an RP-LC retention time of 1230 s.

`CC(C)(C)CC(=O)N1CC2CN(S(=O)(=O)c3cccc(F)c3)CC(C1)O2` returned an RP-LC retention time of 834 s.

In turn, `Cc1cccn2c(=O)cc(CN(C)Cc3ccccc3)nc12` had an RP-LC retention time of 603 s.

Turning to `O=C(c1cc(C2CC2)[nH]n1)N1CC(F)(F)C[C@H]1c1nc(C2CC2)no1`, the RP-LC retention time was 794 s.

Take `CN1CCN(C(=O)c2c3c(nc4ccccc24)C(=O)N(C2CCCCC2)C3)CC1`: the RP-LC retention time was found to be 600 s.

`CCOC(=O)c1ccc2nc(C(F)(F)F)nc(NC(C)CCc3ccccc3)c2c1` (stereo not drawn): the RP-LC retention time came out at 1360 s.

For `O=C(O)c1cccnc1SC1CC(=O)N(c2ccc(F)c(Cl)c2)C1=O` (stereo not drawn), the RP-LC retention time came to 741 s.

`COc1ccc(-c2nc(Cc3noc(Cc4cccc(F)c4)n3)c(C)o2)cc1` displayed an RP-LC retention time of 1000 s.

The compound `CC(C)NC(=O)c1ccc(OCC2CCCN(C(=O)C3(c4ccccc4)CC3)C2)cc1` (stereo not drawn) yielded an RP-LC retention time of 940 s.
